Data: the Kinase Knowledgebase extract (Sharma et al. 2016)
pKi: −log10 of the molar value.

What follows are compounds tested against PIK3CG (human) (UniProt P48736) (assay: Inhibition of PIK3CG Kinase Activity).
PIK3CG (human), sequence (P48736 whole entry, looked up): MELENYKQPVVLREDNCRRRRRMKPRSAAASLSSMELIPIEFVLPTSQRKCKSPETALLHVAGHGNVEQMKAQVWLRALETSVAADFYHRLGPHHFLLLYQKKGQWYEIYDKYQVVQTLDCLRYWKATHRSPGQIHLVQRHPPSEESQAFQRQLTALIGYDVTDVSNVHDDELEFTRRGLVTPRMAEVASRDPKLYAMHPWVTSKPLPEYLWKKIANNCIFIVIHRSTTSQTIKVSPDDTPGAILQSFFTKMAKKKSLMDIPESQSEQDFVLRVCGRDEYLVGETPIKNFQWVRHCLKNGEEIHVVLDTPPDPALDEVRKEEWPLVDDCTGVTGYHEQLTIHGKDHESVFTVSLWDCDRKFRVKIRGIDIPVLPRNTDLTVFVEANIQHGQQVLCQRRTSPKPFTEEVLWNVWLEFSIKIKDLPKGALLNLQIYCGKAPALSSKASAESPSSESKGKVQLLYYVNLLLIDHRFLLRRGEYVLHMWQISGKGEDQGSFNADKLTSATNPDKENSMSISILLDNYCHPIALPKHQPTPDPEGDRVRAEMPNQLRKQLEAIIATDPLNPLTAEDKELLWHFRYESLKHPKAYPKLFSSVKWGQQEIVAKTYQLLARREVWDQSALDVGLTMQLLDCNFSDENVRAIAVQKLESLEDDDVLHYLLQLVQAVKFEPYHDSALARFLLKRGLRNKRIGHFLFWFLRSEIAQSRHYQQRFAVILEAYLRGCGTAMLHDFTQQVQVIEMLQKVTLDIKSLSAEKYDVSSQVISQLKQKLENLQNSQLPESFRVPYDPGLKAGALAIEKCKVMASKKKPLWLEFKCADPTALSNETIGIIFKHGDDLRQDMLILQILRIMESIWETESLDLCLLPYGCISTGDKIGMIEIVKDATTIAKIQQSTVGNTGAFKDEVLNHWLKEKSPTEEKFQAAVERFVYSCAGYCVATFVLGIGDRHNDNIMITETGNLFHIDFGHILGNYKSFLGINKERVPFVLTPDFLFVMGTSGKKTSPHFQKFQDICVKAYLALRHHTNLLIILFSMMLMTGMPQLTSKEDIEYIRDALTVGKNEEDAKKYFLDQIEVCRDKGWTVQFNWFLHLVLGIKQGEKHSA

Row | SMILES | pKi
1 | COc1ncc(-c2ccc3c(n2)[C@@H](C)N(c2cnn(CC(F)(F)F)c2)C3=O)cc1O | > 7.00
2 | COc1cc(-c2cc(N(C)C)c3c(n2)CN(c2cnn(CC#N)c2)C3=O)cnc1OC | > 7.00
3 | COc1cncc(-c2cc(C)c3c(n2)CN(c2cc[nH]n2)C3=O)c1 | > 7.00
4 | COc1cc(-c2ccc3c(n2)CN(c2ccc(N(C)CC4OCCO4)nc2)C3=O)cnc1OC | 6.31 to 7.00
5 | COc1cc(-c2cc(C)c3c(n2)CN(c2ccn(C(C)(C)C#N)n2)C3=O)cnc1OC | > 7.00
6 | COc1cc(-c2ccc3c(n2)CN(c2ccc(N4CCC[C@@H]4CO)nc2)C3=O)cnc1OC | > 7.00
7 | Cc1cc(-c2cnc(C)c(C(=O)N(C)C)c2)nc2c1C(=O)N(c1cnn(CC(F)(F)F)c1)C2(C)C | > 7.00
8 | COc1ncc(-c2cc(C)c3c(n2)C(C)(C)N(c2cnn(CC(F)(F)F)c2)C3=O)cc1C(=O)NC(C)C | > 7.00
9 | COc1cc(-c2ccc3c(n2)CN(c2cnn(CCO)c2)C3=O)cnc1OC | > 7.00
10 | CCn1ccc(N2C(=O)c3c(C)cc(-c4cncc(OC(F)F)c4)nc3[C@@H]2C)n1 | > 7.00
11 | Cc1cc(-c2cncc(C(=O)NC3CC3)c2)nc2c1C(=O)N(c1cnn(CC(F)(F)F)c1)C2 | > 7.00
12 | CCOc1cncc(-c2cc(C)c3c(n2)C(C)(C)N(c2cnn(CC(F)(F)F)c2)C3=O)c1 | > 7.00
13 | COc1ccc(-c2cc(C)c3c(n2)CN(c2cnn(CC#N)c2)C3=O)c(OC)n1 | > 7.00
14 | COc1cc(-c2ccc3c(n2)CN(c2ccn(CC#N)n2)C3=O)cnc1OC | > 7.00
15 | COc1cc(-c2cc(C)c3c(n2)CN(c2cscn2)C3=O)cnc1OC | > 7.00
16 | COc1cc(-c2cc(C)c3c(n2)CN(c2csc(CO)c2)C3=O)cnc1OC | > 7.00
17 | COCCn1ccc(N2Cc3nc(-c4cnc(OC)c(OC)c4)ccc3C2=O)n1 | 6.31 to 7.00
18 | COc1cc(-c2ccc3c(n2)CN(c2cnn(CCn4cccc4)c2)C3=O)cnc1OC | > 7.00
19 | COc1cc(-c2ccc3c(n2)[C@@H](C)N(c2ccn(CC(C)(C)O)n2)C3=O)cnc1OC | > 7.00
20 | Cc1cc(-c2cncc(C(=O)NC(C)(C)C)c2)nc2c1C(=O)N(c1cnn(CC(F)(F)F)c1)C2(C)C | > 7.00
21 | Cc1cc(-c2cncc(C(=O)O)c2)nc2c1C(=O)N(c1cnn(CC(F)(F)F)c1)C2C (stereo not given) | > 7.00
22 | COc1cc(-c2ccc3c(n2)CN(c2ccc(OCCCC(F)(F)F)nc2)C3=O)cnc1OC | > 7.00
23 | COc1cc(-c2ccc3c(n2)CN(c2cncc(C(C)(C)O)c2)C3=O)cnc1OC | > 7.00
24 | CC[C@@H]1c2nc(-c3cnc(OC)c(OC)c3)ccc2C(=O)N1c1cnn(CC(F)(F)F)c1 | > 7.00
25 | COc1cc(-c2cc(C)c3c(c2)CN(c2cnn(CC(F)(F)F)c2)C3=O)cnc1OC | > 7.00

Row | SMILES | pKi
26 | CCn1ncc(N2Cc3cc(-c4cnc(OC)c(OC)c4)ccc3C2=O)n1 | > 7.00
27 | COc1cc(-c2ccc3c(c2)CN(c2cnn(CC(F)(F)F)c2)C3=O)cnc1OC | > 7.00
28 | COc1cc(-c2ccc3c(n2)CN(c2ccsc2)C3=O)cnc1OC | > 7.00
29 | COc1cc(-c2cc(C)c3c(n2)CN(c2ccc(C(C)(C)O)nc2)C3=O)cnc1OC | > 7.00
30 | COc1cc(-c2ccc3c(c2)CN(c2ccnc(C)c2)C3=O)cnc1OC | 6.31 to 7.00
31 | COCCOCCOc1ncc(-c2cc(C)c3c(n2)CN(c2cnn(C)c2)C3=O)cc1OC | 6.31 to 7.00
32 | CCOc1cncc(-c2cc(C)c3c(n2)[C@@](C)(OC)N(c2cnn(CC(F)(F)F)c2)C3=O)c1 | > 7.00
33 | Cc1cc(-c2cncc(OC(F)F)c2)nc2c1C(=O)N(c1cncc(C(C)(C)C#N)c1)C2 | > 7.00
34 | COCc1cc(N2Cc3nc(-c4cnc(OC)c(OC)c4)ccc3C2=O)n[nH]1 | > 7.00
35 | CCc1n[nH]c(N2Cc3cc(-c4cnc(OC)c(OC)c4)ccc3C2=O)n1 | > 7.00
36 | COc1cc(-c2cc(OC)c3c(n2)CN(c2cnn(CC#N)c2)C3=O)cnc1OC | > 7.00
37 | COc1cc(-c2ccc3c(c2)CN(c2cnn(CC#N)c2)C3=O)cnc1Cl | 6.31 to 7.00
38 | CCOc1ncc(-c2cc(C)c3c(n2)C2(CC2)N(c2cnn(CC(F)(F)F)c2)C3=O)cc1OC | > 7.00
39 | COc1ccc(-c2cc(C)c3c(n2)CN(c2cnn(CC(F)(F)F)c2)C3=O)c(OC)c1 | 6.31 to 7.00
40 | Cc1cc(-c2cncc(S(=O)(=O)NC(C)C)c2)nc2c1C(=O)N(c1cnn(CC(F)(F)F)c1)C2(C)C | > 7.00
41 | Cc1cc(-c2cncc(OCC(F)F)c2)nc2c1C(=O)N(c1cnn(CC#N)c1)C2(C)C | > 7.00
42 | Cc1cc(-c2cncc(OCC(F)(F)F)c2)cc2c1C(=O)N(c1cnn(CC(F)(F)F)c1)C2 | > 7.00
43 | CCOc1cncc(-c2cc(C)c3c(n2)C(C)(C)N(c2cnn(CC(F)F)c2)C3=O)c1 | > 7.00
44 | CCO[C@@H]1c2nc(-c3cnc(OC)c(OC)c3)cc(C)c2C(=O)N1c1cnn(CC(F)(F)F)c1 | > 7.00
45 | COCn1cc(N2Cc3cc(-c4cnc(OC)c(OC)c4)ccc3C2=O)cn1 | > 7.00
46 | COc1cc(-c2ccc3c(n2)C(C)N(c2cnn(C(C)(C)C#N)c2)C3=O)cnc1OC (stereo not given) | > 7.00
47 | CCNC(=O)c1cncc(-c2cc(C)c3c(n2)C(C)(C)N(c2cnn(CC(F)(F)F)c2)C3=O)c1 | > 7.00
48 | COc1cc(-c2cc(Cl)c3c(n2)CN(c2cnn(CC(F)(F)F)c2)C3=O)cnc1OC | > 7.00
49 | Cc1cc(-c2cncc(OCC(F)F)c2)nc2c1C(=O)N(c1cnn(CC(F)(F)F)c1)C2 | > 7.00
50 | COc1cc(-c2cc(C)c3c(n2)CN(c2cnn(C[C@H](C)O)c2)C3=O)cnc1OC | > 7.00

Row | SMILES | pKi
51 | COc1cc(-c2ccc3c(n2)CN(c2ccc(N4CCN(C)CC4)nc2)C3=O)cnc1OC | > 7.00
52 | COc1cc(-c2ccc3c(n2)CN(c2ccnc(CC#N)c2)C3=O)cnc1OC | > 7.00
53 | CC(C)(C#N)n1cc(N2Cc3nc(-c4cncc(OC(F)F)c4)ccc3C2=O)cn1 | 6.31 to 7.00
54 | COCCOCCOc1ncc(-c2cc(C)c3c(c2)CN(c2cnn(CC(F)(F)F)c2)C3=O)cc1OC | 6.31 to 7.00
55 | COc1cncc(-c2cc(C)c3c(n2)CN(c2cnn(CC#N)c2)C3=O)c1 | > 7.00
56 | CCOc1ncc(-c2cc(C)c3c(n2)[C@]2(CCCO2)N(c2cnn(CC(F)(F)F)c2)C3=O)cc1OC | > 7.00
57 | COc1cc(-c2ccc3c(n2)CN(c2cnn(Cc4cc(C)on4)c2)C3=O)cnc1OC | > 7.00
58 | COc1cc(-c2ccc3c(n2)CN(c2cnn(C(CO)C(F)(F)F)c2)C3=O)cnc1OC (stereo not given) | > 7.00
59 | COc1cc(-c2ccc3c(n2)C(C)N(c2cnn(C=C(F)F)c2)C3=O)cnc1OC (stereo not given) | > 7.00
60 | COc1cncc(-c2cc(C)c3c(n2)[C@H](C)N(c2ccn(C)n2)C3=O)c1 | > 7.00
61 | CCn1cnc(N2Cc3cc(-c4cnc(OC)c(OC)c4)ccc3C2=O)n1 | > 7.00
62 | COc1cc(-c2cc(C)c3c(n2)CN(c2cnn(CC#N)c2)C3=O)cnc1OC | > 7.00
63 | COc1cc(-c2ccc3c(n2)CN(c2cnn(C(C)(C)C#N)c2)C3=O)cnc1OC(F)F | > 7.00
64 | CCn1ccc(N2C(=O)c3c(C)cc(-c4cncc(OC)c4)nc3C2(C)C)n1 | 6.31 to 7.00
65 | COc1cc(N2Cc3nc(-c4cnc(OC)c(OC)c4)ccc3C2=O)n[nH]1 | > 7.00
66 | COCCOCCOc1cc(-c2cc(C)c3c(n2)CN(c2cnn(CC(F)(F)F)c2)C3=O)cnc1OC | > 7.00
67 | CCOC(=O)c1cncc(N2Cc3nc(-c4cnc(OC)c(OC)c4)ccc3C2=O)c1 | 6.31 to 7.00
68 | Cc1cc(-c2cncc(C(=O)N3CCOCC3)c2)nc2c1C(=O)N(c1cnn(CC(F)(F)F)c1)C2(C)C | 6.31 to 7.00
69 | COc1cc(-c2cc(C)c3c(n2)[C@]2(CCCO2)N(c2cnn(CC(F)(F)F)c2)C3=O)cnc1OC(C)C | > 7.00
70 | CCOc1cc(N2Cc3nc(-c4cnc(OC)c(OC)c4)cc(C)c3C2=O)ccn1 | > 7.00
71 | CCOCCOc1ncc(-c2cc(C)c3c(n2)CN(c2cnn(CC(F)(F)F)c2)C3=O)cc1OC | 6.31 to 7.00
72 | COc1cc(-c2ccc3c(n2)[C@H](N2CCOCC2)N(c2cnn(CC(F)(F)F)c2)C3=O)cnc1OC | > 7.00
73 | COc1cc(-c2ccc3c(n2)CN(c2ccnc(C(C)(C)C#N)c2)C3=O)cnc1OC | > 7.00
74 | COc1cc(-c2cc(C)c3c(n2)C(OC2CCC2)N(c2cnn(CC(F)(F)F)c2)C3=O)cnc1OC (stereo not given) | > 7.00
75 | COc1cc(-c2ccc3c(n2)C2(CC2)N(c2cnn(CC(F)(F)F)c2)C3=O)cnc1OC | > 7.00
